According to patent publication US4871774A, “Medical treatment” (The Boots Company PLC, priority 1987, dated 1989):
Read-outs that look alike come from different tables or passages of the source.

How the values were obtained:
[1] = test system: dopamine reuptake; depletion of brain dopamine; test: In vivo inhibition of dopamine reuptake (prevention of α-methyl-m-tyrosine-induced depletion of brain dopamine); parameters: species or system rat (Sprague-Dawley); conditions: oral, three doses
Source text: An in vivo test for dopamine reuptake inhibition relies on the fact that such reuptake inhibitors can prevent the entry of dopamine-depleting agents into neurons. Depleting agents interfere with the neuronal storage mechanism for dopamine so dopamine leaks into the cytoplasm where it is metabolised by monoamine oxidase. Depleting agents therefore induce a large reduction in brain dopamine levels which can be measured experimentally. Prior treatment with a dopamine reuptake inhibitor reduces the depletion of dopamine levels caused by subsequent administration of a depleting agent such as α-methyl-m-tyrosine.
Male Sprague-Dawley rats (180-220 g: Charles River) were randomly assigned to various treatment groups. […] Thirty minutes later, one vehicle treated group and all the test groups were given an i.p. injection (2 ml/kg) of the depleting agent α-methyl-m-tyrosine (25 mg/kg; Sigma Chemical Co.). […]
Brain samples were thawed and homogenised in 4 volumes of 0.4M perchloric acid containing sodium metabisulphite (0.4 mM) and the internal standard 3,4-dihydroxybenzylamine (0.8 μM). […] Supernatants were removed and their dopamine concentration determined using an HPLC (high pressure liquid chromatography) system with fluorimetric detection.
The percentage prevention (P) of depletion of brain dopamine levels by test compounds is calculated from the formula [formula] […]

[2] = test system: brain DOPAC (turnover of dopamine); test: Turnover of dopamine in rodent brains by determination of DOPAC concentrations (mouse); assay type: in vivo, mouse (CD1); conditions: whole brain, 10 mg/kg oral, 2 h
Source text: (7) Measurement of the turnover of dopamine in rodent brains by determination of DOPAC concentrations following drug administration
Inhibition of dopamine reuptake in the brain reduces the rate at which dopamine is synthesised and metabolised (the turnover rate). This can be assessed by measuring the amount of the dopamine metabolite DOPAC (dihydroxyphenylacetic acid) which accumulates in the brains of rats and mice. In addition, the administration of probenecid blocks active transport of DOPAC out of the brain. The subsequent rise in brain DOPAC concentrations is attenuated by drugs which inhibit dopamine reuptake.
One group of animals was killed two hours later. […] Aliquots (50 μl) of the clear supernatants were then injected automatically into the chromatographic system for the separation and quantification of DOPAC.
High pressure liquid chromatography (HPLC) combined with electrochemical detection (ECD) was employed to assay DOPAC. […] The controller was set at 20 nA full-scale and output from the cell recorded using a Spectra-Physics 4100 automatic computing integrator. Quantification of DOPAC was effected by the computing integrator after calibration of the HPLC-ECD system using DOPAC of known concentration and including isoprenaline as an internal standard. […]

[3] = test system: uptake of dopamine into striatal synaptosomes; test: In vitro inhibition of dopamine uptake (14C-dopamine, rat striatal synaptosomes); assay type: biochemical, rat (Sprague-Dawley); conditions: for IC50: 0.17 μM 14C-dopamine
Description: (1) In vitro inhibition of dopamine uptake
Male Sprague-Dawley rats (Charles River) were killed by cervical dislocation and the brains removed and placed in an ice-cold oxygenated Krebs solution containing 120 mM NaCl, 4.7 mM KCl, 2.1 mM KH2 PO4, 1.2 mM CaCl2, 0.6 mM MgSO4, 25 mM NaHCO3 and 11 mM glucose. The brains were then dissected according to the method of Glowinski and Iversen [J. Neurochem. (1966) 13 655-669] and the striata removed. The samples of striata were pooled, weighed and transferred to a glass homogenising vessel on ice, containing oxygenated 0.32M sucrose solution (20 volumes). […] The homogenate was centrifuged at 1000×g for 10 minutes at 4° C. and the supernatant containing a suspension of synaptosomes was used in the dopamine uptake inhibition tests described below. […] A solution of ^14 C-dopamine hydrochloride (Amersham International) was added (0.2 ml) to give a final concentration of 0.17 μM. The incubation was continued for a further 5 minutes before the contents of the tubes were filtered under vacuum through Whatman GF/F filters which were washed with ice-cold Krebs solution (2×5 ml). The filters were placed in scintillation vials containing 10 ml scintillation fluid (ES-299 supplied by Packard Instruments) and the radioactivity in the vials counted on a Packard 4530 scintillation counter. In each experiment there was a control tube in which no test compound was present, 3 tubes in which the compound being tested was present at one of three concentrations (100, 10 and 1 μM) and a background tube containing no test compound which was maintained at 0° C. to determine passive ^14 C-dopamine uptake. The count for each tube was registered in counts per minute (cpm) and the % inhibition of uptake (I) calculated from the formula [formula] […] The concentration which gave 50% inhibition of uptake was then calculated and is given below as the IC50 figure for each experiment.

[4] = test system: uptake of dopamine into synaptosomes from rat striata; test: Inhibition of dopamine uptake in vitro by plasma from drug treated rats obtained over a period of time after a single 30 mg/kg dose; assay type: biochemical; conditions: for % Inhibition of dopamine uptake - Mean (± SEM): 30 mg/kg oral
Description: (4) Inhibition of dopamine uptake in vitro by plasma from drug treated rats obtained over a period of time after a single 30 mg/kg dose
The percentage inhibition of dopamine uptake was determined in a similar manner to that described in (3) above. […]

plasma dopamine level = test: Dopamine level in the plasma of human subjects; assay type: in vivo; conditions: for Dopamine levels: human plasma, 2 h after administration
Source text: The mean value of domamine in picograms/ml is set out below at days 1, 4 and 7. Eight human subjects who were given placebo tablets provides plasma samples from which the mean control dopamine levels given below were obtained.

## CC(C)CC(N(C)C)C1(c2ccc(Cl)cc2)CCC1.Cl.O (stereo not shown) [N,N-dimethyl-1-[1-(4-chlorophenyl)cyclobutyl]-3-methylbutylamine hydrochloride monohydrate]
[1]
  prevention of brain dopamine depletion (in words): dose-dependent prevention of brain dopamine depletion
[2]; A (drug alone), control 74 ± 5
  Brain DOPAC Levels: 54 ± 3 ng/g wet wt
[2]; B (with probenecid 200 mg/kg i.p.), control 116 ± 8
  Brain DOPAC Levels: 54 ± 3 ng/g wet wt
[3]; 1 μM, Ex.1
  % Inhibition of uptake: 31%
[3]; 1 μM, Ex.2
  % Inhibition of uptake: 4%
[3]; 1 μM, Ex.3
  % Inhibition of uptake: 12%
[3]; 10 μM, Ex.1
  % Inhibition of uptake: 70%
[3]; 10 μM, Ex.2
  % Inhibition of uptake: 35%
[3]; 10 μM, Ex.3
  % Inhibition of uptake: 48%
[3]; 100 μM, Ex.1
  % Inhibition of uptake: 96%
[3]; 100 μM, Ex.2
  % Inhibition of uptake: 81%
[3]; 100 μM, Ex.3
  % Inhibition of uptake: 86%
[3]; 100, 10 and 1 μM
  inhibition of 14C-dopamine uptake (in words): inhibited ^14 C-dopamine uptake in a concentration-dependent manner
[3]; Ex.1, 37° C., read-out: IC50
  IC50: 3.3 µM
[3]; Ex.2, 37° C., read-out: IC50
  IC50: 18 µM
[3]; Ex.3, 37° C., read-out: IC50
  IC50: 11 µM
[3]; mean of three replicate experiments, read-out: mean (±SEM) IC50 value for inhibition of dopamine uptake
  IC50: 11 ± 4.2 µM
[4]; 1 hr after dosing
  % Inhibition of dopamine uptake - Mean (± SEM): 45.0 ± 4.1%
[4]; 3 hrs after dosing
  % Inhibition of dopamine uptake - Mean (± SEM): 63.0 ± 1.7%
[4]; 8 hrs after dosing
  % Inhibition of dopamine uptake - Mean (± SEM): 73.4 ± 3.5%
[4]; 24 hrs after dosing
  % Inhibition of dopamine uptake - Mean (± SEM): 31.5 ± 2.4%
[4]; 48 hrs after dosing
  % Inhibition of dopamine uptake - Mean (± SEM): 19.5 ± 5.2%
[4]; 72 hrs after dosing
  % Inhibition of dopamine uptake - Mean (± SEM): 10.4 ± 1.6%
[4]; single 30 mg/kg oral dose
  persistence of inhibition of dopamine uptake by rat plasma (in words): persists for a considerable period of time after dosing
Plasma dopamine level; Day 1, 30 mg per day, control 122
  Dopamine levels: 254 pg/mL
Plasma dopamine level; Day 4, 30 mg per day, control 110
  Dopamine levels: 294 pg/mL
Plasma dopamine level; Day 7, 30 mg per day, control 118
  Dopamine levels: 219 pg/mL
Plasma dopamine level; human subjects, 30 mg dose
  plasma dopamine levels (in words): plasma dopamine levels had increased
